The source made the active and inactive calls.
Experiments:
[1] = molecular target: Intestinal-type alkaline phosphatase (Mus musculus, UniProt P24822); assay: PubChem AID 488785; type: functional
[2] = molecular target: T1, Alkaline phosphatase, tissue-nonspecific isozyme (Homo sapiens, UniProt P05186); assay: TNAP enzyme inhibition by screening hits, dose response, selectivity assay for mouse IAP inhibitor project, biochemical, human TNAP, uHTS hits (AID 488906); type: functional
T1 sequence (P05186 whole entry): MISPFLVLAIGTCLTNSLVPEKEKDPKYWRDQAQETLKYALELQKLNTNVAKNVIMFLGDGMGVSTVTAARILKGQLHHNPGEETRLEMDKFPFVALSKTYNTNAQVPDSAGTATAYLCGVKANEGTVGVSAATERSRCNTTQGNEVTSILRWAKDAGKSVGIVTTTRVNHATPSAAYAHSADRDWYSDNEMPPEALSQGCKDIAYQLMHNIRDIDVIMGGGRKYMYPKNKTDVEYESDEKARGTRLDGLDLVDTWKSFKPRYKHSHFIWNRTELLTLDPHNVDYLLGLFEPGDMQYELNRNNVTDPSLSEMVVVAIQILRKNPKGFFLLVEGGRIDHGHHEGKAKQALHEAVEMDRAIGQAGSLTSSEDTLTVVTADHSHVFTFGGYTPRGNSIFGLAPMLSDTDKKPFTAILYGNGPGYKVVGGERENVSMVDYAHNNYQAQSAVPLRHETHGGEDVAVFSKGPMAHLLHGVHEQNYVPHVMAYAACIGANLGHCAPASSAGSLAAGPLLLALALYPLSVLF

[3] = molecular target: Intestinal-type alkaline phosphatase (Homo sapiens, UniProt P09923); assay: inhibition of human intestinal alkaline phosphatase – biochemical, dose response (AID 488876); type: functional
Chain of Intestinal-type alkaline phosphatase (Homo sapiens, UniProt P09923) (P09923 whole entry): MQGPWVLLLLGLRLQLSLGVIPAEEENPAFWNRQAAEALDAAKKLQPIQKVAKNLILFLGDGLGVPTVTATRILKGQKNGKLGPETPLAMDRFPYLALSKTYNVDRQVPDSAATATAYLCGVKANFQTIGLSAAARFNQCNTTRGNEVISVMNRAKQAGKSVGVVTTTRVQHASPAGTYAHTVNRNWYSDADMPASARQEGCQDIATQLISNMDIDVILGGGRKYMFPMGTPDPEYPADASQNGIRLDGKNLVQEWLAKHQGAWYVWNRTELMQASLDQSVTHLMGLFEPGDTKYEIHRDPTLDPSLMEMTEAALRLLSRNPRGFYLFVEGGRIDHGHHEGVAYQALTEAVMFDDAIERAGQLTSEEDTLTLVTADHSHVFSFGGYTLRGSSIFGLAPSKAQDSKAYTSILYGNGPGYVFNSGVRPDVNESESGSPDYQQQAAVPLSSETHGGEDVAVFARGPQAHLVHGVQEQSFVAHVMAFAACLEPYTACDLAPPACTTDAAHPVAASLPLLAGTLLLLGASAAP

[4] = Luminescence Cell-Based Dose Retest to Confirm Inhibitors of Cancer Stem Cells. [Related pubchem assays (depositor defined):AID2717, AID2721]; type: functional; conditions: Homo sapiens
[5] = molecular target: T2, Ubiquitin-conjugating enzyme E2 N (Homo sapiens, UniProt P61088); type: functional;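 note: Dose-response confirmation in a TR-FRET assay detecting UBC13-driven polyubiquitin chain formation, inhibition measured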
T2 sequence (P61088 whole entry): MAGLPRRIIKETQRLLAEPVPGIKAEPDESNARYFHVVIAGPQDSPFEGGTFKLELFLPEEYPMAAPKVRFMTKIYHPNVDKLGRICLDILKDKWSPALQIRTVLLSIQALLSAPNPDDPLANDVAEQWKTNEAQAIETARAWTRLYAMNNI

[6] = molecular target: T3, Endoribonuclease toxin MazF (Escherichia coli K-12, UniProt P0AE70); assay: activation of MazEF endoribonuclease cleavage – biochemical, fluorescence, single-stranded RNA substrate, uHTS hits, dose response (AID 588481); type: functional
T3 sequence (P0AE70 whole entry): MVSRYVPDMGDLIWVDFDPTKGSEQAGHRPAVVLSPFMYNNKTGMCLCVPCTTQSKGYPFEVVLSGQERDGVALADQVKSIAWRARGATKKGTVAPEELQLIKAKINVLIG

[7] = molecular target: T3, Endoribonuclease toxin MazF; assay: substrate-only fluorescence increase artefacts – biochemical, single-stranded RNase substrate, counter-screen for MazEF activator project, dose response (AID 588502); type: functional
[8] = A549 cell cytotoxicity, dose response, cytotoxicity control, plate reader, cherry-pick, antagonist series (AID 743412); type: functional, cell-based
[9] = toxicity toward HepG2 liver cells – cell-based, plate reader, cherry-pick, antagonist series, cytotoxicity control, dose response (AID 743416); type: functional
[10] = blockers of bursicon-stimulated LGR2 cAMP reporter – cell-based, HEK293, CRE-luciferase reporter, cherry pick, set 2, dose response (AID 743343); type: functional;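 note: transfected cells were stimulated with diluted bursicon conditioned medium after compound addition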
[11] = blockade of melanocortin 4 receptor signaling – cell-based, plate reader, cherry pick, counter-screen for LGR2 antagonist project, dose response (AID 743444); type: functional;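 note: transfected HEK 293 cells stimulated with alpha-MSH peptide; potency of inhibitors of the alpha-MSH evoked signal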
[12] = viability loss in HEK293 cells – cell-based, plate reader, cherry-picked samples, cytotoxicity control, dose response (AID 743446); type: functional
[13] = molecular target: T4, Lysine-specific demethylase 4C (Homo sapiens, UniProt Q9H3R0); assay: inhibition of JMJD2C H3K9me3 demethylation – biochemical, DELFIA europium, cherry-picked samples, dose response (AID 488835); type: functional
T4 sequence (Q9H3R0 whole entry): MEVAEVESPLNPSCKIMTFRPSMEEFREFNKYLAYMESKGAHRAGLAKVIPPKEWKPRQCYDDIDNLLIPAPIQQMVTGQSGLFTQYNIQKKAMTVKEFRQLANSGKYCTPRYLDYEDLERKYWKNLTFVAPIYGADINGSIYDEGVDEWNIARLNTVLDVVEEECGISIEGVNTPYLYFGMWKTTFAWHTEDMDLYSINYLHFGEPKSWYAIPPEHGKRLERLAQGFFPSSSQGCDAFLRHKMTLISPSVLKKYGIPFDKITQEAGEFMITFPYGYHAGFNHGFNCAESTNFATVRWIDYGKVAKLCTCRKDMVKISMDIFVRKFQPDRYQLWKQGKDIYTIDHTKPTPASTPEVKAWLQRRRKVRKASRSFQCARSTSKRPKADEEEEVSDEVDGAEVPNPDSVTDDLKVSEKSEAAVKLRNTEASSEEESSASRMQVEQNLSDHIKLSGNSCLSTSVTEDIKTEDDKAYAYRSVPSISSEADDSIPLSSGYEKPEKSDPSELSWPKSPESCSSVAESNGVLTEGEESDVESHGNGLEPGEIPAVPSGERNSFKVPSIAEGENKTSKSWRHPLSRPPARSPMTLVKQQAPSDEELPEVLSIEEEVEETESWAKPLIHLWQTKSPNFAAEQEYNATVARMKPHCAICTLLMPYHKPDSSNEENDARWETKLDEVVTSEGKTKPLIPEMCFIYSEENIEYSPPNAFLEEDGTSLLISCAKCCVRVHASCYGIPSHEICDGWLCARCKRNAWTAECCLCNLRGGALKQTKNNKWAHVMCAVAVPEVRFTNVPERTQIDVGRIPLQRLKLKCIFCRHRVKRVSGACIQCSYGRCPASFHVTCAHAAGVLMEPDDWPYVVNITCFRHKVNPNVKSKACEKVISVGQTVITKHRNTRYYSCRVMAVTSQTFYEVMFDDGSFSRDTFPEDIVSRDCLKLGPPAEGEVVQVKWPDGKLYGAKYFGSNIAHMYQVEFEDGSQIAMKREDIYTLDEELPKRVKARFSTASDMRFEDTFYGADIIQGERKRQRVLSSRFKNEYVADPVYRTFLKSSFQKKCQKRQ

[14] = molecular target: Glyceraldehyde-3-phosphate dehydrogenase (Homo sapiens, UniProt P04406)
Chain of Glyceraldehyde-3-phosphate dehydrogenase (P04406 whole entry): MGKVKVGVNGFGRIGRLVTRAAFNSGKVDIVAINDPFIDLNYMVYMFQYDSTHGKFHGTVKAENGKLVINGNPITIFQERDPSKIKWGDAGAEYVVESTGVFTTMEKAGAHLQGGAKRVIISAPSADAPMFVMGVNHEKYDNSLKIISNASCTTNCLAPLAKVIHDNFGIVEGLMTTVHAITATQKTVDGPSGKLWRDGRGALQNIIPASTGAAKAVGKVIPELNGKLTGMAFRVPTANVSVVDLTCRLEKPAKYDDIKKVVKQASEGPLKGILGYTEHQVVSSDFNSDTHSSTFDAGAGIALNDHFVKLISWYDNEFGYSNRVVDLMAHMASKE

[15] = molecular target: T1, Alkaline phosphatase, tissue-nonspecific isozyme; assay: potency against alkaline phosphatase TNAP – biochemical, luminescent, dose response, SAR follow-up (AID 1056)
[16] = Trypanosoma cruzi growth suppression in host cells – NIH3T3 host cells, beta-gal luminescence, confirmation (AID 2044); type: functional, cell-based;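 note: intracellular parasites grown in NIH/3T3 mouse fibroblasts as host cells; luminescent beta-galactosidase reporter signal from transgenic T. cruzi replicating inside host cells; inhibitors lower the luminescence signal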
[17] = NIH3T3 cell viability loss – ATP luminescence, mouse fibroblasts, counter-screen, dose response (AID 2010); type: functional, cell-based;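 note: cells exposed to compound for about 90 hours before reading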
[18] = viability loss of HMLE_sh_eGFP cells – cell-based, luminescence, counter-screen for HMLE_sh_ECad selective toxicity project, dose response (AID 463074); type: functional, Homo sapiens;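 note: HMLE human mammary epithelial cells expressing control shRNA against eGFP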
H9c2 = assay: cells; type: functional, cell-based; conditions: Rattus norvegicus, H9c2, Myocardium;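 note: confirmatory concentration-response retest of ultra-high-throughput screening hits for modulation of myocardial damage; cell death induced by hydrogen peroxide oxidative stress; compound pretreatment for 60 min then peroxide exposure for 2 h; potency is for protecting the cells against peroxide damage rather than for killing them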
SUMO E1/E2 = SUMO E1/E2 (Homo sapiens, UniProt P63279+Q9UBE0+Q9UBT2); assay: SAR analysis of SUMOylation using HTRF in an in-Vitro dose response assay. [Related pubchem assays (depositor defined):AID2006, AID2011, AID2018, AID2069, AID2658]; type: functional
Chain of SUMO E1/E2 (Q9UBE0 whole entry): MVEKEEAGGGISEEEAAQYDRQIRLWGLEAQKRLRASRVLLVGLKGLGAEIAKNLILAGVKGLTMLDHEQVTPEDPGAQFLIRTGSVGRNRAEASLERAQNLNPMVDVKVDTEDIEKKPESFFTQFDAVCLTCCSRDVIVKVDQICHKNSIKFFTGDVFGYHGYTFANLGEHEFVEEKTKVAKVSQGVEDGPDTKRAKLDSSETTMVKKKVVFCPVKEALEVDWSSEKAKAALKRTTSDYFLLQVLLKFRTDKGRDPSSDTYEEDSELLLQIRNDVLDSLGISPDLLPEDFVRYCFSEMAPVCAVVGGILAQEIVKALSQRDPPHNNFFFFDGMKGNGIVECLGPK
Chain of SUMO E1/E2 (Q9UBT2 whole entry): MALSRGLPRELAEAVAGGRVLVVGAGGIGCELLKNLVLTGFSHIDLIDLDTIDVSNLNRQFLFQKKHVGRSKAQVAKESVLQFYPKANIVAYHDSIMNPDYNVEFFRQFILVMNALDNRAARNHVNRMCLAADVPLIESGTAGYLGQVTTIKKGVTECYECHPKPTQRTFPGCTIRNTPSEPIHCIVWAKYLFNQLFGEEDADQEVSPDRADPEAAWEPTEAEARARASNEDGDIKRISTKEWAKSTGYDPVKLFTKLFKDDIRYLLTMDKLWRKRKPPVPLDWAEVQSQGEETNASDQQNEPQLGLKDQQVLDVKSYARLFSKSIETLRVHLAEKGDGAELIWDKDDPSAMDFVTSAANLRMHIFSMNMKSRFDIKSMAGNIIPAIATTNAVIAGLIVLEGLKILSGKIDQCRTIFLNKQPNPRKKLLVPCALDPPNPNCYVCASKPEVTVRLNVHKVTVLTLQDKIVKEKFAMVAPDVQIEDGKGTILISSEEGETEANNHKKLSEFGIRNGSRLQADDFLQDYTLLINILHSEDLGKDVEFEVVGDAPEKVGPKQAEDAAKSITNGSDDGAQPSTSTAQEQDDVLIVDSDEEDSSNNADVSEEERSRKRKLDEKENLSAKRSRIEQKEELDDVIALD
Chain of SUMO E1/E2 (P63279 whole entry): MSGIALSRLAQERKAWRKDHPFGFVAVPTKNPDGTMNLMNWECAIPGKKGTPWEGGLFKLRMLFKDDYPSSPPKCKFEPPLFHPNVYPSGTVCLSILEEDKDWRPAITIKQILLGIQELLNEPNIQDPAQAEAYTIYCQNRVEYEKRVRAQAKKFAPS

Hexokinase HKDC1 = molecular target: T5, Hexokinase HKDC1 (Homo sapiens, UniProt Q2TB90); assay: activation of HKDC1 glucose phosphorylation – biochemical, W721R variant, dose response (AID 504730); type: functional
T5 sequence (Q2TB90 whole entry): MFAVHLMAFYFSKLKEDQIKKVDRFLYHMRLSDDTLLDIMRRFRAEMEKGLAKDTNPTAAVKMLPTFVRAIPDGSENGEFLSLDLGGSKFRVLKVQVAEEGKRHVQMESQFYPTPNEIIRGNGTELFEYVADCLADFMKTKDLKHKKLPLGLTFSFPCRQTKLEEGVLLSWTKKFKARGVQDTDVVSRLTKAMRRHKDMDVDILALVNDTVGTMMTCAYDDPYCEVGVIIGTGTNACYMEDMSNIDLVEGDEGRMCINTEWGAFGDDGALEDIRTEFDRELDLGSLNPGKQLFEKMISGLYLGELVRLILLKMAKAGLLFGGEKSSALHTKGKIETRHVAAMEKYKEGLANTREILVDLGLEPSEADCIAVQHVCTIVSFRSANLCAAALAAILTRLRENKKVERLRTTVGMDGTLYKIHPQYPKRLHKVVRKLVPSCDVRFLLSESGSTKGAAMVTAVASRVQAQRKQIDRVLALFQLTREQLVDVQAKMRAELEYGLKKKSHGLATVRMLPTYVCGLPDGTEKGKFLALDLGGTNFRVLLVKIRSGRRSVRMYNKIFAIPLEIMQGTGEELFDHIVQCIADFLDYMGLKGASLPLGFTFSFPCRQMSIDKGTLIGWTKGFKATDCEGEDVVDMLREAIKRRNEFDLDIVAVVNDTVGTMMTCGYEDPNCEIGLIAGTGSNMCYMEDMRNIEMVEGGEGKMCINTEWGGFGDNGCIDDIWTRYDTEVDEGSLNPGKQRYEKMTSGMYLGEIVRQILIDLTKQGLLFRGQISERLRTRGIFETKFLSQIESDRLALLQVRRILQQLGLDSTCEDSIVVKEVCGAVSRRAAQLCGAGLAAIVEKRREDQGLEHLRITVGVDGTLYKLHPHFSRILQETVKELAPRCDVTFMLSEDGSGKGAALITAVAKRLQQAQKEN

Nonstructural protein 1 = Nonstructural protein 1 (Influenza A virus, UniProt Q194T2); type: functional, Influenza A virus (A/California/07/2009(H1N1))
Chain of Nonstructural protein 1 (Q194T2 whole entry): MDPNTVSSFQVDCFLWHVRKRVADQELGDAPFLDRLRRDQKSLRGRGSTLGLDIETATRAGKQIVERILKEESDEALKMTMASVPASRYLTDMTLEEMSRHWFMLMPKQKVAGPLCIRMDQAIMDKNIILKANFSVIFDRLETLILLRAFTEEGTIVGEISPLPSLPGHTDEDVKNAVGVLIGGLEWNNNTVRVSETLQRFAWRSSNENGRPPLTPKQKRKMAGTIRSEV

Hexokinase-1 = molecular target: T6, Hexokinase-1 (Homo sapiens, UniProt P19367); assay: HK1 enzyme activation by HKDC1 hits – biochemical, selectivity assay for HKDC1 activator project, dose response (AID 504762); type: functional
T6 sequence (P19367 whole entry): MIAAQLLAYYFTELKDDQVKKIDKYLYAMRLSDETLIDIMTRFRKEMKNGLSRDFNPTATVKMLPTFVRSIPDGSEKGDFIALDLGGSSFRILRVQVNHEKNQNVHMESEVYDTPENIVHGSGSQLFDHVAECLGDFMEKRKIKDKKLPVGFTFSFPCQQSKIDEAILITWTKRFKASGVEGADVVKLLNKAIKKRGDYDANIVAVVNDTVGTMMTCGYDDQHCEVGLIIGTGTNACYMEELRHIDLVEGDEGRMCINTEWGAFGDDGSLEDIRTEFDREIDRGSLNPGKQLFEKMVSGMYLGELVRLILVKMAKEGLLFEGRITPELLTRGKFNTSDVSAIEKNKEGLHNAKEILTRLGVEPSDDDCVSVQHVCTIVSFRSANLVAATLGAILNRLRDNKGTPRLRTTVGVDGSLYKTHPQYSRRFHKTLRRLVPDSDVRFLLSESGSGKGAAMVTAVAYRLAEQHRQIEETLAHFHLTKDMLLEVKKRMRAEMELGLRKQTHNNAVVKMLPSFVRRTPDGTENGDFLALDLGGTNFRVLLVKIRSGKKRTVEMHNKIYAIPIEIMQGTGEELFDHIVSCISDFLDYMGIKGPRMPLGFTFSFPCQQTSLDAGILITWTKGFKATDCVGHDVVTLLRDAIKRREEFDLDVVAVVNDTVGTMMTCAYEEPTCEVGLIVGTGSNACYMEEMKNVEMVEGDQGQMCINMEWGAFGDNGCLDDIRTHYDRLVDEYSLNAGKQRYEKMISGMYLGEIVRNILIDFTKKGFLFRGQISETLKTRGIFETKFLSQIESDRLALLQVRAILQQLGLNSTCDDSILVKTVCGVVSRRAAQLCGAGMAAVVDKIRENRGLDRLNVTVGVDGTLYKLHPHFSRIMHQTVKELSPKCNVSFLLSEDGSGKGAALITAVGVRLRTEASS

[19] = molecular target: Heat shock protein HSP 90-alpha (Homo sapiens, UniProt P07900); type: functional, organism-based

Chain of Intestinal-type alkaline phosphatase (Mus musculus, UniProt P24822) (P24822 whole entry): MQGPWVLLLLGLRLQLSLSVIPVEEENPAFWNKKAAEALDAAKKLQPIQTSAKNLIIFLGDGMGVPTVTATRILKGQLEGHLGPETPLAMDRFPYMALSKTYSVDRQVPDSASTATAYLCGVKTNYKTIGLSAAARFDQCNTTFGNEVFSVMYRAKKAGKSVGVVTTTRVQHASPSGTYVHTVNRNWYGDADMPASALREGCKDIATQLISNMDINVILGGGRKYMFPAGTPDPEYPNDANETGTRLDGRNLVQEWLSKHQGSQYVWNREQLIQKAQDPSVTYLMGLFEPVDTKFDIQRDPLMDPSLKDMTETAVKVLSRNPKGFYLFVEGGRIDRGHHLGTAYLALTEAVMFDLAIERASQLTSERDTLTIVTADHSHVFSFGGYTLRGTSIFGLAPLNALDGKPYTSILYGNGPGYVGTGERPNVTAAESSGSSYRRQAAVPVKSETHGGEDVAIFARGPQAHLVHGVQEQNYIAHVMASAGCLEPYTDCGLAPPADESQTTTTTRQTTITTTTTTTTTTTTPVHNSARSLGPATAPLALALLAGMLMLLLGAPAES

Compound: Cc1ccc(NC(=S)NCc2ccccc2)cc1S(=O)(=O)N1CCCCC1
- IC50 [1]: 1.4 µM (active)
- IC50 [2]: > 100 µM (inactive)
- IC50 [3]: > 100 µM (inactive)

Compound: O=C(Nc1ccc(Cl)c(C(F)(F)F)c1)NC1CC2CCCC(C1)N2Cc1ccccc1 (configuration not stated)
- AC50 [4]: 6.55 µM (active)
- IC50 [5]: > 20 µM (inactive)
- IC50 [1]: 11.2 µM (active)
- IC50 [2]: > 100 µM (inactive)
- IC50 [3]: > 100 µM (inactive)
- EC50 [6]: > 99 µM (inactive)
- EC50 [7]: > 99 µM (inactive)
- AC50 [8]: 11.4 µM (active)
- AC50 [9]: 12.6 µM (active)
- AC50 [10]: 39 µM (active)
- AC50 [11]: 33.5 µM (active)
- AC50 [12]: 29.6 µM (active)

Compound: CN1C(=O)C(=Cc2ccc(N3CCCCCC3)cc2)C(=O)N(C)C1=O
- AC50 [13]: 13.1 µM (active)

Compound: CCOc1ccc(OCC)c(S(=O)(=O)Nc2cccnc2)c1
- IC50 [14]: > 100 µM (not active)
- IC50 [15]: 4.44 µM (active)

Compound: COc1ccc(C(=O)CCN2CCN(c3ccccc3F)CC2)cc1
- EC50 [16]: 2.19 µM (active)
- EC50 [17]: 7.83 µM (active)
- AC50 [4]: 17.2 µM (active)
- AC50 [18]: 35.3 µM (active)

Compound: COc1ccc(-c2nn3c(-c4ccco4)nnc3s2)cc1OC
- AC50 [13]: 10.3 µM (active)
- IC50 (H9c2): 11.2 µM (active)

Compound: O=C(O)c1cc(-c2ccc(F)cc2)n[nH]1
- IC50 [14]: > 100 µM (not active)
- IC50 [15]: 4.74 µM (active)

Compound: C/C(=N\OCc1nc2ccccc2c(=O)n1/N=C/c1cc(Br)ccc1O)c1ccccc1
- IC50 (SUMO E1/E2): 14.7 µM (active)

Compound: CC(=NNC(=S)N1CC2CCC(CC2)C1)c1ccncn1
- EC50 (Hexokinase HKDC1): 13.3 µM (active)
- IC50 (Nonstructural protein 1): 3.98 µM (active)
- EC50 (Hexokinase-1): > 80 µM (inactive)
- AC50 [19]: 3.03 µM (active)

Compound: O=C(O)c1ccc2c(c1)C1C=CCC1C(c1ccccc1)N2 (configuration not stated)
- IC50 (SUMO E1/E2): > 100 µM (inactive)

Reference: ChEMBL document CHEMBL1201862, “PubChem BioAssay data set” (2004)
